According to patent publication US20020119891A1, “Integrated methods for control of aquatic weeds” (priority 2001, published 2002):
Values joined by “and” are separate entries in the source; they are usually repeats but may differ in a detail not shown here. Equal values may be shown once.

How the values were obtained:
hydrilla [1] = test: Field treatment of a water body with plant biochemical and water residue monitoring; type: in vivo, Hydrilla verticillata
Excerpt: (§1) Preferred methods of the present invention also involve plant biochemical testing conducted during the treatment. Thus, during the period in which a fluridone level is being maintained in the body of water under treatment, aquatic weed samples are obtained from the water body. This may involve, for example, collection of growing apical meristems from selected sites in the water body, preferably along with matched water samples from the same sites. Again, the sample sites can be logged using GPS or another suitable system to assist in future sampling and reference.
(§2) The aquatic weed plant samples can then be assessed to determine the effect of the maintained level of fluridone on the plants. To this end, the samples are first thoroughly washed and weighed. In a typical treatment, 6 to 12 samples per site will be collected. Similar to the discussions above, standard methods are then used to assay the level of pigments such as B-carotene, chlorophyll, and/or other relevant substances such as phytoene, in the tissue. […] The levels can be measured as discussed above using any suitable method such as spectrophotometry or fluorometry and appropriate standard curves. The measured values can then be utilized to determine whether any additional applications of fluridone or other adjustments are necessary to bring concentrations to levels that will be phytotoxic to the local aquatic weed population.
The biochemical assays discussed above, taken during treatment, are preferably used in conjunction with assays of water samples simultaneously taken, to determine the concentration of fluridone in the water body. […] The combination of measured fluridone concentration along with measured effect on plant health provides a particularly powerful method for the management of aquatic weeds in water bodies.
The Spring Creek Arm of Lake Seminole (5000 acres) was treated in May 2000 using a drip system that added fluridone based on flow rates in the river. […] Plant response to the treatment was monitored and threshold water concentrations were determined. […]

aquatic weeds = conditions: cited from earlier work
Eurasian watermilfoil [2] = test: Field treatment of a lake with fluridone; type: in vivo
Excerpt: as §1
as §2, with “population. […]” for “population.”

hydrilla [3] = test: Pretreatment aquatic weed bioassay: apical tips grown in fluridone-treated medium, pigments of new growth assayed; type: in vivo, Hydrilla verticillata
Excerpt: (§3) As disclosed above, fluridone treatments of the invention are integrated with assays to determine the efficacy of fluridone on the local plant population in the body of water under treatment, and desirably also with assays to determine the concentration of fluridone existing during the treatment program. For example, in the present invention, an aquatic weed bioassay can be used to determine the pre-treatment susceptibility of a target plant population to fluridone. Such an assay may for instance involve the collection of meristematic stem tissue or vegetative propagules at selected sites within a body of water to be treated. The sites of collection may be logged, for instance using coordinates defined by the global positioning satellite (GPS) system. […]
(§4) At the completion of the growth period, all new growth from the plants can be excised from the original plant tissue. […] After the extraction, the extracted sample is assayed to quantitate the levels of pigments, for example chlorophyll and/or β-carotene. […] For example, spectrophotometric absorbance measurements for chlorophyll may be taken at 645 and/or 662 nm; for β-carotene may be taken at 445 nm; and for phytoene may be taken at 287 and/or 347 nm. These measured values may be compared to control data (e.g. including curves generated using samples of known concentration) to determine the level of these substances in the samples. […]

Eurasian watermilfoil [4] = test: Pretreatment aquatic weed bioassay: sampled plants exposed to fluridone, pigments assayed; type: in vivo
Excerpt: as §3, §4

1-methyl-3phenyl-5-3-(trifluoromethyl)phenyl-4(1H)-pyridinone [fluridone]
weed control result of earlier treatment (hydrilla [1]; Lake Eva, 1999 treatment): very poor control | lake concentration relative to control threshold (pigment assay) (hydrilla [1]; Lake Eva, Central Florida, treated April 2000, target rate 15 ppb): below thresholds required to provide control | plant response at downstream sites (plant sampling) (hydrilla [1]; Spring Creek Arm of Lake Seminole, drip system treatment, May 2000): lack of impact at several downstream sites | susceptible concentration, less sensitive species (aquatic weeds; other species, only higher concentrations): 150 ppb | susceptible concentration, more sensitive species (aquatic weeds; some species, as low as): about 5 ppb | weed control result of field treatment (Eurasian watermilfoil [2]; Lake McKinney, Minnesota, treated late summer 1999, assessed end of following summer): could no longer be found in the lake | weed control result of previous field applications (Eurasian watermilfoil [2]; Wolverine Lake, two applications at 5 and 6 ppb in the last 3 years): unsatisfactory results | threshold concentration of fluridone (pigment concentrations in new growth) (hydrilla [3]; Example 1: hydrilla from 2500-acre Florida lake, 0, 3, 6, 12, 24 ppb, 12-day growth, no enhancement at 12 and 24 ppb): 6 ppb | lowest rate hydrilla is susceptible to (pretreatment assay) (hydrilla [3]; Spring Creek Arm of Lake Seminole hydrilla): 5 ppb | threshold concentration of fluridone (Eurasian watermilfoil [4]; Example 3: Eurasian watermilfoil from Wolverine Lake, Michigan, 0, 3, 6, 9, 12, 15 ppb): 6 ppb and 9 ppb | plant response below threshold (Eurasian watermilfoil [4]; Wolverine Lake Eurasian watermilfoil, 3 ppb): rapid recovery of the plants
